Test results as given in paper PMC9332802, “Structure–Activity Relationship of New Chimeric Analogs of Mastoparan from the Wasp Venom Paravespula lewisii” (International Journal of Molecular Sciences, 2022).
≈ marks a conversion by molar mass, not a printed value. Where “and” joins values, the source holds several entries; their conditions need not be identical. Equal entries are not always repeated. Ends that are not written are not given here.

Columns and labels:
[1] = test system: Pseudomonas aeruginosae NCTC 6749; assay: microbe, parasite or virus in culture; assay type: cell-based; settings: broth microdilution (CLSI), Mueller–Hinton broth, 37 °C, peptide 0.125 to […], no visible growth, triplicate
Method: (§1) Antimicrobial activity of peptides was examined against three reference strains: Staphylococcus aureus NCTC 4163, Escherichia coli NCTC 8196 and Pseudomonas aeruginosae NCTC 6749 dedicated for the determination of antibacterial activity. The bacterial strains were stored in glycerol stock (Sigma-Aldrich, St. Louis, MO, USA) at −80 °C. Before testing, the strains were cultured aerobically in Tryptic Soy Agar (BD DIFCO, Franklin Lakes, NJ, USA) at 37 °C for 20 h. The susceptibility of microorganisms to the peptides was determined by the broth microdilution assay according to the procedures outlined by CLSI [49]. […] In order to prepare the bacterial suspension, an overnight culture of bacteria in Tryptic Soy Broth (BD DIFCO, Franklin Lakes, NJ, USA) was diluted in sterile saline to a final concentration of approximately 10^7 CFU/mL of bacteria. Aliquots (5 µL) of bacterial suspension were added to each peptide solution. The sterility control (containing the tested peptide in broth) and the growth control (containing the reference strain in broth without the tested peptide) were also set up. The plates were incubated at 37 °C under aerobic conditions. The results are expressed as the minimal inhibitory concentration (MIC) of the compounds in question. The MIC was defined as the lowest concentration at which no visible growth of bacteria (no turbidity) was observed. The assay was performed in triplicate.

[2] = test system: Staphylococcus aureus NCTC 4163; assay: microbe, parasite or virus in culture; assay type: cell-based; settings: broth microdilution (CLSI), Mueller–Hinton broth, 37 °C, peptide 0.125 to […], no visible growth, triplicate
Method: as §1

[3] = test system: Escherichia coli NCTC 8196; assay: microbe, parasite or virus in culture; assay type: cell-based; settings: broth microdilution (CLSI), Mueller–Hinton broth, 37 °C, peptide 0.125 to […], no visible growth, triplicate
Method: as §1

[4] = Circular dichroism spectroscopy, relative α-helix fraction; assay type: physicochemical; settings: CD, peptide 0.15 mg/mL, 25 °C, three scans averaged; for Relative α-helix fraction (fH), 0.1 M Tris + 50 mM SDS: 0.1 M Tris buffer pH 7.01 + 50 mM SDS, from mean residue ellipticity at 222 nm; for Relative α-helix fraction (fH), 50% TFE / Relative α-helix fraction (fH), water: from mean residue ellipticity at 222 nm (Rohl and Baldwin)
Method: Circular dichroism spectroscopy was applied to evaluate the conformational changes of peptides induced by membrane-mimetic environments. The secondary structures of MP and some of its MP analogs (Table 4) were determined in water, 50% 2,2,2-trifluoroethanol (TFE) and 0.1 M Tris buffer with the addition of 50 mM SDS. The relative α-helix fraction (fH) values presented in Table 4, calculated from the values of mean residue ellipticity at 222 nm, reflect the ability of peptides to adopt helical structure in the tested environments.
Circular dichroism (CD) spectra of peptides were recorded on a Jasco J-815 spectropolarimeter (Jasco Int. Co., Ltd., Tokyo, Japan). The CD spectra were acquired for peptides in a concentration of 0.15 mg/mL in water, 50% 2,2,2-trifluoroethanol (TFE) or 0.1 M tris(hydroxymethyl)aminomethane (Tris) buffer (pH 7.01) with the addition of 50 mM SDS (sodium dodecylsulphate) in 0.1 cm path length cuvettes. Measurements were taken at 25 °C in a spectral range of 193–260 nm with a bandwidth of 1 nm and response of 1 s. The spectra were averaged after three scans. Ellipticity was measured in mdeg units and converted to mean residue ellipticity (Θ). The relative helix content (fH) was calculated from the mean residue ellipticity values at 222 nm using the method proposed by Rohl and Baldwin [50] and described previously. Helical wheel projections (Figure 3) were made with HeliQuest https://heliquest.ipmc.cnrs.fr/ (accessed on 1 June 2022).

[5] = test system: HT29 cells; assay: MTT cytotoxicity assay; assay type: cell-based, human; settings: for Effect on cell viability up to 10 µM: 24 h, peptide up to 10 µM; for LD50 (peptide concentration sufficient to kill 50% of the peptide-treated cells): 24 h incubation, 0.05–50 µM, from regression curves of cell viability, triplicate
Method: (§2) The cytotoxicity of the selected MP analogs, MP-RIP and RIP-MP, was determined against two human cell lines. The viability of HT29 and HCT116 cells incubated with various concentrations of MP-RIP and RIP-MP was assessed by the MTT assay (Figure 4). […] Moreover, based on the regression curves of cell viability, lethal doses of MP analogs sufficient to kill 50% of the peptide-treated cells (LD50) were calculated. […] The viability of the HT29 cells indicates relatively low cytotoxicity of both analogs at a concentration corresponding to the MIC value against S. aureus. In the case of HCT116 cells, the above relationships were less evident.
(§3) Human cell lines HT29 (ATCC cat. # HTB-38) and HCT116 (ATCC cat. # CCL-247) were cultured in McCoy (HT29) or Dulbecco’s Modified Eagle’s (DMEM) medium (HCT116), supplemented with 10% fetal bovine serum (FBS), penicillin (100 U/mL) and streptomycin (100 µg/mL). Cultures were conducted at 37 °C in humidified atmosphere of 5% CO2. Cells were cultured for 24 h before initiation of the experiments. The cell viability was determined by the 3-(4, 5-dimethylthazol-2-yl)-2, 5-diphenyl tetrazolium bromide (MTT) assay. Briefly, HT29 or HCT116 cells were seeded in 96-well plates to a density of 10^5 cells/well in 0.2 mL of above-specified culture media. After 24 h, the following concentrations of peptides were added to wells: 0.05, 0.1, 0.5, 1, 5, 10, 25, 50 µM. As a negative control, cells were treated with 0.9% NaCl. After 24 h of incubation (5% CO2, 37 °C), 15 µL MTT solution was added into each well to reach the final concentration of […]. After further incubation for 2 h (5% CO2, 37 °C) the cells were centrifuged for 3 min at 4 °C and the medium was removed. Formazan crystals present in mitochondria of metabolically active cells were dissolved with 100 μL of dimethylsulfoxide (DMSO), and the dye concentration was determined at 570 nm wavelength. Cell viability was expressed as a percentage (mean value ± SEM) of those cells treated with 0.9% NaCl as negative control. Lethal doses, which correspond to peptide concentrations sufficient to kill 50% of the peptide-treated cells (LD50), were determined with GraphPad Prism 7.0 software (GraphPad Software Inc., La Jolla, CA, USA). The assay was performed in triplicate.

[6] = test system: HCT116 cells; assay: MTT cytotoxicity assay; assay type: cell-based, human; settings: for Effect on cell viability up to 10 µM: 24 h, peptide up to 10 µM; for LD50 (peptide concentration sufficient to kill 50% of the peptide-treated cells): 24 h incubation, 0.05–50 µM, from regression curves of cell viability, triplicate
Method: as §2, §3

[7] = cited from earlier work
Description: However, comparing their cytotoxic properties with other MP analogs known from the previous literature reports appears to be difficult due to the different cell lines used in cytotoxicity assays.

Compound	MIC P. aeruginosae [1] [mg/L]	MIC S. aureus [2] [mg/L]	MIC E. coli [3] [mg/L]	Relative α-helix fraction (fH), 0.1 M Tris + 50 mM SDS [4]	Relative α-helix fraction (fH), 50% TFE [4]	Relative α-helix fraction (fH), water [4]	Effect on cell viability up to 10 µM [5]	LD50 (peptide concentration sufficient to kill 50% of the peptide-treated cells) [5] [µM]	Effect on cell viability up to 10 µM [6]	LD50 (peptide concentration sufficient to kill 50% of the peptide-treated cells) [6] [µM]	Fold lower cytotoxicity than MP [7] [fold]
CC[C@H](C)[C@H](NC(=O)[C@H](CCCCN)NC(=O)CNC(=O)[C@H](CC(C)C)NC(=O)[C@H](CC(C)C)NC(=O)[C@H](Cc1ccc(O)cc1)NC(=O)CNC(=O)[C@H](C)N)C(=O)N[C@@H](CC(N)=O)C(=O)N[C@@H](CC(C)C)C(=O)N[C@@H](CCCCN)C(=O)N[C@@H](C)C(=O)N[C@@H](CC(C)C)C(=O)N[C@@H](C)C(=O)N[C@@H](C)C(=O)N[C@@H](CC(C)C)C(=O)N[C@@H](C)C(=O)N[C@@H](CCCCN)C(=O)N[C@@H](CCCCN)C(=O)N[C@H](C(=O)N[C@@H](CC(C)C)C(=O)N[C@@H](Cc1ccc(O)cc1)C(=O)N[C@@H](CCCCN)C(=O)N1CCC[C@H]1C(=O)N[C@H](C(=O)N[C@H](C(=O)N[C@@H](CC(N)=O)C(=O)N[C@@H](Cc1ccccc1)C(N)=O)[C@@H](C)O)[C@@H](C)CC)[C@@H](C)CC [TP10-[Lys^2, Ile^4] RIP]	>256	128 (≈ 42 µM)	>256	0.31	0.29	0.08	–	–	–	–	–
CC[C@H](C)[C@H](NC(=O)[C@H](CCCCN)NC(=O)[C@H](CCCCN)NC(=O)[C@H](C)NC(=O)[C@H](CC(C)C)NC(=O)[C@H](C)NC(=O)[C@H](C)NC(=O)[C@H](CC(C)C)NC(=O)[C@H](C)NC(=O)[C@H](CCCCN)NC(=O)[C@H](CC(C)C)NC(=O)[C@H](CC(N)=O)NC(=O)[C@@H](NC(=O)[C@H](CCCCNC(=O)Cn1c(-c2ccccn2)nc2ccccc21)NC(=O)CNC(=O)[C@H](CC(C)C)NC(=O)[C@H](CC(C)C)NC(=O)[C@H](Cc1ccc(O)cc1)NC(=O)CNC(=O)[C@H](C)N)[C@@H](C)CC)C(=O)N[C@@H](CC(C)C)C(N)=O [[Lys^7 (PBnzAc)] TP10]	>256	>256	>256	0.32	0.51	0.14–0.19 and 0.15	–	–	–	–	–
INLKALAALAKKILLIKKALAALAKLNI-NH2 [MP-retroMP]	>256	>256	>256	0.17	0.23–0.24 and 0.24	0.04	–	–	–	–	–
INLKALAALAKKILYSPWTNF-NH2 [MP-RIP]	>256	–	–	–	–	–	did not substantially affect the viability	38.0	did not substantially affect the viability	13.2	–
LIKKALAALAKLNI-NH2 [retroMP, reference compound]	256	>256	256	0.16	–	0.19	–	–	–	–	3.5
YSPWTNFINLKALAALAKKIL-NH2 [RIP-MP]	>256	–	–	–	–	–	did not substantially affect the viability	30.2	did not substantially affect the viability	17.0	–
